Publication PMC4104029, “Mechanism of Action of Compound-13: An α1-Selective Small Molecule Activator of AMPK” (Chemistry & Biology, 2014)

Tests used:
Yeast acetate CoA ligase = experiment: Acetate CoA ligase assay; type: biochemical; conditions: 0–100 μM
Excerpt: (Needleman and Wunsch, 1970) and edited using ESPript (Gouet, et al., 2003). Secondary structure was derived from PDBID 2Y94. The phosphotransferase domain is shaded green (T-loop phosphorylation site is indicated with a star), the autoinhibitory domain in blue and the C-terminal domain in yellow. Regulatory elements in the α-linker are also indicated: α-hook in pink and α-RIMs in orange. Black lines indicate the position of the epitopes recognised by α-subunit specific antibodies used in this study. (B) COS-1 cells were seeded into 6-well plates and transiently transfected with pCMV-AMPKβ1, pCMV-AMPKγ1 and either pCMV-FLAG-AMPKα2 WT or pCMV-FLAG-AMPKα2/α1 LOOP chimera using FuGENE HD.
After 24 h cells were treated with the indicated compounds for 1 h and kinase activity determined in anti-FLAG immunoprecipitates under standard conditions. […]
Mouse hepatocytes were incubated with the indicated compounds in the absence (Resting) or presence of 10 mU/ml insulin for 60 min. Lysates were analysed by Western blotting using the indicated antibodies. […]
Yeast acetate CoA ligase (Sigma) was assayed in reactions containing 50 mM TES pH 7.4, 0.1 mM EDTA, 5 mM MgCl2, 4 mM ATP, 0.2 mM coenzyme A, 5 mM DTT and increasing concentrations of C2 and C13 (0 – 100 μM). The formation of pyrophosphate (PPi) was monitored by reduction of PPi-molybdate complexes as described in Methods. […]

[1] = test system: AMPK-KO (AMPKα1−/− -α2−/−) hepatocytes; experiment: Lipid synthesis, [1-14C]acetate incorporation; type: cell-based, mouse
Procedure: Figure 5 C13 Inhibits Lipid Synthesis and Fatty Acid Esterification in Mouse Hepatocytes in an AMPK-Dependent Manner (A) Mouse hepatocytes were treated with the indicated concentrations of C13 and labeled with [1-^14C]acetate for 3 hr. A769662 (100 μM) and AICAR (0.5 mM) were included as positive controls. Rates of fatty acid and sterol synthesis were estimated by incorporation into saponifiable and nonsaponifiable lipids. Results are expressed as the mean acetate incorporated in micromoles per gram-hour ± SD and are representative of two independent experiments. […] Incorporation into triglyceride was determined as described in Experimental Procedures and results are expressed as palmitate incorporated in micromoles per gram-hour ± SD and are representative of three independent experiments. […] Results are expressed as percentage WT vehicle and represent the mean ± SD for three independent experiments. […]
Lipid synthesis was determined by labeling adherent cultures of primary hepatocytes with [1-^14C]acetate. […] Lipogenesis in hepatocytes from AMPKβ1/β2-KO mice was determined in media containing [^3H]acetate (0.2 mCi⋅mmol^−1). After 4 hr labeling, total lipids were extracted using the method of [Bligh and Dyer (1959)], and incorporated [^3H] was determined by scintillation counting. The results are expressed as micromoles acetate incorporated per gram-hour.

Question: With `CC(C)C(=O)OCOP(=O)(OCOC(=O)C(C)C)c1ccc(C2=NOC(=O)C2)o1` [Compound C13] as the compound, how does the IC50 (Yeast acetate CoA ligase) read?
Answer: 33 ± 2.2 µM

Question: And the anti-lipogenic effect [1]?
Answer: resistant

Question: What about the impairment of lipogenesis ([1]; highest concentrations of C13) of the same compound?
Answer: ≈ 20%
